Usually Ki stands for the dissociation constant of the complex between target and ligand, obtained from inhibition or displacement.

Each structure is given as a SMILES string.

In the assay the target is Calcitonin gene-related peptide type 1 receptor/Receptor activity-modifying protein 1 (Homo sapiens, UniProt Q16602+O60894). In words: Displacement of [125I]-hCGRP from human CALCRL/RAMP1 expressed in HEK293 cell membranes.
Chain of Calcitonin gene-related peptide type 1 receptor/Receptor activity-modifying protein 1 (Q16602 whole entry): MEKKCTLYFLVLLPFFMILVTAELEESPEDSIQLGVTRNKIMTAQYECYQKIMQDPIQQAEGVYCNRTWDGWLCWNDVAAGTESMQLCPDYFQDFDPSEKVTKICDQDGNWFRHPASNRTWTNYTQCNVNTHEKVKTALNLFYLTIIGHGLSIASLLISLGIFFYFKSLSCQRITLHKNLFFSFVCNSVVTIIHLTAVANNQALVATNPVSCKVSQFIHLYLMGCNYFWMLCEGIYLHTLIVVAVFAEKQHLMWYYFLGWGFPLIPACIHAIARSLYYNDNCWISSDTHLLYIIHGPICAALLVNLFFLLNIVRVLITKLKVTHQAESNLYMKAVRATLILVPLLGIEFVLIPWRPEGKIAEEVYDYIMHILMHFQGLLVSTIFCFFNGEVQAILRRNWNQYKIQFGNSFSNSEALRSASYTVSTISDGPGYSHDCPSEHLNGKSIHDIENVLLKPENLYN
Chain of Calcitonin gene-related peptide type 1 receptor/Receptor activity-modifying protein 1 (O60894 whole entry): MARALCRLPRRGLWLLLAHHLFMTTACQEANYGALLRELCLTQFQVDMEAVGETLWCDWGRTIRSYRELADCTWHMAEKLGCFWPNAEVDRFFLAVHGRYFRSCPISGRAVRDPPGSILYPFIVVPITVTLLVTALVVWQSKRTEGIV

With `C[C@H](c1cc(F)cc(F)c1)N(C/C=C/c1cnc2c(c1)C[C@@]1(C2)C(=O)Nc2ncccc21)C(=O)C1(C(F)(F)F)CC1` [US8552023, 11], the inhibitory constant (Ki) was 0.05 nM. The result for `Cc1ccc([C@@H](C)N(C/C=C/c2cnc3c(c2)C[C@@]2(C3)C(=O)Nc3ncccc32)C(=O)C(C)(C)C)cc1F` [US8552023, 13] reads 0.13 nM.

The values above are taken from BindingDB's records for doi:10.1016/j.bmcl.2013.11.027 (Merck, 2013).
